Data as given in paper PMC6556873, “Rapid Covalent-Probe Discovery by Electrophile-Fragment Screening” (Journal of the American Chemical Society, 2019).
Like-named read-outs stand apart in the source and are kept apart here.

Tests used:
[1] = target: T1, BSA (Bos taurus, UniProt P02769); parameters: Intact protein LC/MS covalent labelling, fragments in pools of five, 200 uM each, 4 °C; conditions: 24 h, 4 °C, pool of five; 200 µM; covalent
T1 construct: gene ALB

[2] = target: T2, NNMT (hNNMT) (Homo sapiens, UniProt P40261); parameters: Intact protein LC/MS covalent labelling, fragments in pools of five, 200 uM each, 4 °C; conditions: 24 h, 4 °C, pool of five; 200 µM; covalent
T2 construct: wild type, N-terminal His6 tag kept (no cleavage described), E. coli, construct 31248 Da
T2 sequence (P40261 1-264): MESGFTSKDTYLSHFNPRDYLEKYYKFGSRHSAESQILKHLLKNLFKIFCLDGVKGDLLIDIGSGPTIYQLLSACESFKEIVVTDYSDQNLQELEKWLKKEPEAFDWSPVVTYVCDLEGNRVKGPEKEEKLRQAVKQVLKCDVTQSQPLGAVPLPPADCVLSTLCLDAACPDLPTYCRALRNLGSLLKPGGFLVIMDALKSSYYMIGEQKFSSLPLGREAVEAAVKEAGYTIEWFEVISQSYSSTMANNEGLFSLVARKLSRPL

[3] = target: T3, NUDT7 (Homo sapiens, UniProt P0C024); parameters: Intact protein LC/MS covalent labelling, fragments in pools of five, 200 uM each, 4 °C; conditions: 24 h, 4 °C, pool of five; 200 µM; covalent
T3 construct: residues 14-235, E. coli, pNIC28-Bsa4, N-terminal His6 tag removed by TEV, construct 26672 Da

[4] = target: T4, OTUB2 (OTUB2A) (Homo sapiens, UniProt Q96DC9); parameters: Intact protein LC/MS covalent labelling, fragments in pools of five, 200 uM each, 4 °C; conditions: 24 h, 4 °C, pool of five; 200 µM; covalent
T4 construct: full length residues 1-234, E. coli BL21(DE3)-R3, His tag removed by TEV, construct 27312 Da
T4 sequence (Q96DC9 1-234): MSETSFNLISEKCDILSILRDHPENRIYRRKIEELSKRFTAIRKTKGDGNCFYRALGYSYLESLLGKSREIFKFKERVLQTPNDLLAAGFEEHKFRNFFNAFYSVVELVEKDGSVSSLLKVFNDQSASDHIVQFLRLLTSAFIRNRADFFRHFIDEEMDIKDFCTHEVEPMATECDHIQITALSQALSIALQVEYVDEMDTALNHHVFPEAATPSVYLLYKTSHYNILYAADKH

[5] = target: T5, PCAF (Homo sapiens, UniProt Q92831); parameters: Intact protein LC/MS covalent labelling, fragments in pools of five, 200 uM each, 4 °C; conditions: 24 h, 4 °C, pool of five; 200 µM; covalent
T5 construct: gene KAT2B

[6] = in vitro; parameters: species or system CCD841, HEK293; conditions: human, hb2 cells, read-out: HB-2 Cells Viability (%)
[7] = in vitro; parameters: species or system HB2, HEK293; conditions: human, ccd841 cells
[8] = in vitro; parameters: species or system HB2, CCD841; conditions: human, hek293 cells

T3 sequence (P0C024 14-235): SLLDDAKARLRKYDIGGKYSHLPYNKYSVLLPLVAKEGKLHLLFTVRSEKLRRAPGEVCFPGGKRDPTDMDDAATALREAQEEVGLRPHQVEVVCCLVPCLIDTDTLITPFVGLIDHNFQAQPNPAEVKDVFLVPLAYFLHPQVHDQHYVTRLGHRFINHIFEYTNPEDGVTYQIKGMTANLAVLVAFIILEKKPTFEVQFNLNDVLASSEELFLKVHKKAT
T5 sequence (Q92831 whole entry, the tested form may be a part): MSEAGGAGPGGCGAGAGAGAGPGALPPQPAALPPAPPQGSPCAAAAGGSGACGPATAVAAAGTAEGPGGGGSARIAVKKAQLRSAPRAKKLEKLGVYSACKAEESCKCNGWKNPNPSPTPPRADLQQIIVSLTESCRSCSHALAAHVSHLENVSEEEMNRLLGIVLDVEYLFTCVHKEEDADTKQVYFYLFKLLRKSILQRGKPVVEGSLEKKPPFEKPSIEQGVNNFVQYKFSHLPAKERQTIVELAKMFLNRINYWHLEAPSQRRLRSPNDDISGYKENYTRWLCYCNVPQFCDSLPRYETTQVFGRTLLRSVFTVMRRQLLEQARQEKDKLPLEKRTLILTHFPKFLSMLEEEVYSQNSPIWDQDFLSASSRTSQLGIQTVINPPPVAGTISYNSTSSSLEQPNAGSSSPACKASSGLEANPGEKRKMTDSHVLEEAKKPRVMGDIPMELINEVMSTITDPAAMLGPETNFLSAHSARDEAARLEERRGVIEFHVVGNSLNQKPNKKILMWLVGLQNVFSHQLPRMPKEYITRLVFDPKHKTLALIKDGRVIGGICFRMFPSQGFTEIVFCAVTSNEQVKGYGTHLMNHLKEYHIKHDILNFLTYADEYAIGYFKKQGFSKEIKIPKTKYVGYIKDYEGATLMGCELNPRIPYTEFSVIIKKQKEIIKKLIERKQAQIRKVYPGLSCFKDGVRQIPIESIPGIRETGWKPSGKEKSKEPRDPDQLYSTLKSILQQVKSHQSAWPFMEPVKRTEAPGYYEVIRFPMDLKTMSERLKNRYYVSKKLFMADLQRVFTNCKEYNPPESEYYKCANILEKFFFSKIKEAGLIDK
T1 sequence (P02769 whole entry, the tested form may be a part): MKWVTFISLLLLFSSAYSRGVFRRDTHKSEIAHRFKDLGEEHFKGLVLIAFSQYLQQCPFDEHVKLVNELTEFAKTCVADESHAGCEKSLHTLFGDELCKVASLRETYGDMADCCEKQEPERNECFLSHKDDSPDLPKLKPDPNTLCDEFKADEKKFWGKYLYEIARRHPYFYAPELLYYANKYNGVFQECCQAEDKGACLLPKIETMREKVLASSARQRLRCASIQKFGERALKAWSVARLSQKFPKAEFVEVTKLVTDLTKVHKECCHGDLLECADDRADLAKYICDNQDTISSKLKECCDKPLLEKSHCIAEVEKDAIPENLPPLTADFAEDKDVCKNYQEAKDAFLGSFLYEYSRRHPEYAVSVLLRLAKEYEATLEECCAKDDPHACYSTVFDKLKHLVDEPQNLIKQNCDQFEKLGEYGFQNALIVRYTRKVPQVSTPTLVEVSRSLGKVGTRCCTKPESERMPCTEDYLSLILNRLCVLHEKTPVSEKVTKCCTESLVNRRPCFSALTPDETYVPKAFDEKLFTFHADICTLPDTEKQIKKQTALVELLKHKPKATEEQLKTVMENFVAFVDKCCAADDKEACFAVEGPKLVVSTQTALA

| SMILES | BSA [1] | NNMT [2] | NUDT7 [3] | OTUB2 [4] | PCAF [5] | viability at 48 h, 10 µM [6] [%] | viability at 48 h, 10 µM [7] [%] | viability at 48 h, 10 µM [8] [%] |
| --- | --- | --- | --- | --- | --- | --- | --- | --- |
| C=CC(=O)N1CCCN(c2ccc(-c3ccccc3)nn2)CC1 [PCM-0102964] | 0 | 0 | 0 | 0 | 0 | 102 | 103 | 87.2 |
| C=CC(=O)Nc1ccccc1C(=O)OC [PCM-0102967] | 0 | 0 | 0.51 | 0 | 0 | 90.2 | 81 | 68.8 |
| O=C(CCl)N1CCC(C(=O)N2CCCCC2)CC1 [PCM-0102972] | 0 | 0 | 0 | 0.08 | 0 | 84.6 | 106 | 76.6 |
| COC(=O)C1CCN(C(=O)CCl)CC1 [PCM-0102978] | 0 | 0 | 0 | 0 | 0 | 100 | 110 | 99.4 |
| O=C(CCl)N1CCCC1=O [PCM-0102982] | 0 | 0 | 0 | 0 | 0 | 111 | 101 | 114 |
| Cc1nc(C2(NC(=O)CCl)CCCCC2)no1 [PCM-0102983] | 0 | 0 | 0.1 | 0 | 0 | 102 | 112 | 99.7 |
| CN(Cc1ccccc1)C(=O)CCl [PCM-0102984] | 0 | 0 | 0.11 | 0 | 0 | 78.6 | 91.6 | 55.2 |

Now from value to compound, other results behind:

| BSA [1] | NNMT [2] | NUDT7 [3] | OTUB2 [4] | PCAF [5] | SMILES | viability at 48 h, 10 µM [6] [%] | viability at 48 h, 10 µM [7] [%] | viability at 48 h, 10 µM [8] [%] |
| --- | --- | --- | --- | --- | --- | --- | --- | --- |
| 0 | 0 | 0 | 0 | 0 | C=CC(=O)N1CCC(C(=O)c2cccs2)CC1 [PCM-0102989] | 97.7 | 97.9 | 102 |
| 0 | 0 | 0 | 0 | 0 | C=CC(=O)NC1CCCN(c2cc(C)nn2C)C1=O (stereo not shown) [PCM-0102991] | 98.2 | 113 | 94.5 |
| 0 | 0 | 0.08 | 0 | 0 | N#CC1(NC(=O)CCl)CCCCC1 [PCM-0102993] | 87.6 | 83.3 | 66 |
| 0 | 0.46 | 0.26 | 0 | 0 | Cc1cc(C)c(NC(=O)CCl)c(Cl)c1 [PCM-0102994] | 94 | 73.1 | 74.1 |
| 0 | 0.23 | 0 | 0.05 | 0 | CC(NC(=O)NC(=O)CCl)C1CC2CCC1C2 (stereo not shown) [PCM-0102997] | 98.1 | 116 | 91.4 |
| 0 | 0 | 0 | 0.3 | 0 | O=C(CCl)Nc1ccc(F)cc1 [PCM-0103002] | 68.5 | 71.8 | 35.5 |
| 0 | 0 | 0 | 0 | 0 | C=CC(=O)N1CCCN(C(=O)c2cc(Cl)cn2C)CC1 [PCM-0103003] | 105 | 101 | 96.7 |
